The results in this text go back to patent US20230355536A1, “OZONE-BASED LOW TEMPERATURE SILICON OXIDE COATING FOR PHARMACEUTICAL APPLICATIONS” (Applied Materials, Inc., priority 2022, published 2023).

What all share (format): physicochemical
Data set [1] can be described thus: FTIR spectrum of API particles before and after coating process. The settings on record: coated versus uncoated API particles. An excerpt: FIGS. 2A-2B (FIG. 2B is a zoom-in image of FIG. 2A) show the FTIR spectrum of the coated and uncoated acetaminophen API particles.
FIGS. 6A-6B (FIG. 6B is a zoom-in image of FIG. 6A) show the FTIR spectrum of the coated and uncoated theophylline API particles.
FIGS. 9A-9B (FIG. 9B is a zoom-in image of FIG. 9A) show the FTIR spectrum of the coated and uncoated API-1 particles.

The nature of data set [2]: HPLC analysis of API integrity after ozone treatment. The settings on record: ozone generated with oxygen flow rate of 10, 30 and 50 sccm. As for the experimental part: To test whether ozone treatment will affect the integrity of the API, the API (acetaminophen) was treated with ozone at various concentrations. Here, ozone was created by an ozone generator with various oxygen flow rates. The lower the oxygen flow rate, the high the ozone concentration is. Specifically, the API (acetaminophen) was treated with ozone generated with an oxygen flow rate of 10 sccm, 30 sccm and 50 sccm. FIGS. 8A-8D show the HPLC analysis of the API (acetaminophen) after ozone treatment. […] As shown in FIGS. 8A-8D, there were no new peaks (impurity) generated after ozone exposure with as low as 10 sccm oxygen flow rate (highest O3 concentration)

Data set [3] in a line: Wetting/dispersity of particles in DI water. The following applies: acetaminophen particles dissolved into DI water. The procedure:
The coated API (acetaminophen) particles were dissolved into DI water to test the wetting/dispersity properties of these particles.
As a control group, API (acetaminophen) was also treated with silane to apply a monolayer of silane.

For the compound `Cn1c(=O)c2[nH]cnc2n(C)c1=O` [theophylline, reference compound], the “change in FTIR signals before and after the coating process” value in data set [1] was “no significant change”.

As to `CC(=O)Nc1ccc(O)cc1` [acetaminophen], the “change in FTIR signals before and after the coating process” value in data set [1] was “no significant change”. For the same compound, in data set [2], the “new peaks (impurity) in HPLC after ozone exposure” value is on record as “no new peaks”. Also, the wetting/dispersity result in data set [3] is given as “poor wetting/dispersity”.
